The text below walks through data of the supplement of paper PMC10307832.

Common to all, as to assay: relative viability (nuclei count vs DMSO), 5 days (fraction); higher = more cells survive
Compound in experiment [1]: CCN1CCN(c2ccc(Nc3cc(N(C)C(=O)Nc4c(Cl)c(OC)cc(OC)c4Cl)ncn3)cc2)CC1 [BGJ398] + Cc1cc(Nc2cc(N3CCN(C)CC3)nc(Sc3ccc(NC(=O)C4CC4)cc3)n2)n[nH]1 [Tozasertib] (partner 0.1 µM)
Put shortly:
(§1)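 Cells from lung cancer lines were seeded into 1536-well plates and, one day later, dosed by pin tool. Treatments were either a single drug or a fixed dose of an anchor drug with five library-drug doses (not always all listed) in √10 steps. After 5 days, nuclei were stained in a one-step fixation (final 0.05% Triton X-100, 1% formaldehyde, 1 ug/ml Hoechst) and counted on 4× images, and relative viability is the treated-to-vehicle nuclei ratio, as the median of duplicate plates.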

Compound in experiment [2]: CCN1CCN(c2ccc(Nc3cc(N(C)C(=O)Nc4c(Cl)c(OC)cc(OC)c4Cl)ncn3)cc2)CC1 [BGJ398] + CC(C)C[C@H](NC(=O)[C@H](Cc1ccccc1)NC(=O)c1cnccn1)B(O)O [Bortezomib] (partner 0.002 µM)
The method, boiled down: as §1

Compound in experiment [3]: CCN1CCN(c2ccc(Nc3cc(N(C)C(=O)Nc4c(Cl)c(OC)cc(OC)c4Cl)ncn3)cc2)CC1 [BGJ398] + Nc1nc2[nH]cc(CCc3ccc(C(=O)N[C@@H](CCC(=O)O)C(=O)O)cc3)c2c(=O)[nH]1 [Pemetrexed] (partner 0.2 µM)
Put shortly: as §1

Compound in experiment [4]: C1=CC2=NC=CN=C2C=C1/C=C/3\C(=O)NC(=O)S3 + Cc1nc(Nc2ncc(C(=O)Nc3c(C)cccc3Cl)s2)cc(N2CCN(CCO)CC2)n1 [Dasatinib] (partner 0.075 µM)
The method, boiled down: as §1

As for NCI-H1437, the relative viability in experiment [1] (first compound 0.01 µM) was determined as 0.414; in experiment [1] (first compound 0.03162 µM) it was 0.418; in experiment [1] (first compound 0.1 µM), 0.418; in experiment [1] (first compound 0.3162 µM), 0.4; in experiment [1] (first compound 1 µM), 0.427; in experiment [2] (first compound 0.01 µM), 0.521. Moreover, the relative viability in experiment [2] (first compound 0.03162 µM) turned out to be 0.56; in experiment [2] (first compound 0.1 µM), 0.412; in experiment [2] (first compound 0.3162 µM) it was 0.536; in experiment [2] (first compound 1 µM), 0.462; in experiment [3] (first compound 0.01 µM), 0.322; in experiment [3] (first compound 0.03162 µM), 0.309. Moreover, the relative viability in experiment [3] (first compound 0.1 µM) was 0.296; in experiment [3] (first compound 0.3162 µM) it was 0.321; in experiment [3] (first compound 1 µM), 0.298; in experiment [4] (first compound 0.02 µM), 0.656; in experiment [4] (first compound 0.06325 µM) it was 0.353; in experiment [4] (first compound 0.2 µM), 0.406. Moreover, the relative viability in experiment [4] (first compound 0.6325 µM) came to 0.353; in experiment [4] (first compound 2 µM), 0.174.
Take NCI-H1650: the relative viability came out at 0.498 in experiment [1] (first compound 0.01 µM); 0.464 in experiment [1] (first compound 0.1 µM); 0.289 in experiment [1] (first compound 0.3162 µM); 0.356 in experiment [1] (first compound 1 µM); 0.22 in experiment [2] (first compound 0.01 µM); 0.203 in experiment [2] (first compound 0.03162 µM). Also, the relative viability was 0.184 in experiment [2] (first compound 0.1 µM); 0.174 in experiment [2] (first compound 0.3162 µM); 0.19 in experiment [2] (first compound 1 µM); 0.391 in experiment [3] (first compound 0.01 µM); 0.361 in experiment [3] (first compound 0.03162 µM); 0.354 in experiment [3] (first compound 0.1 µM). For the same cell line, the relative viability in experiment [3] (first compound 0.3162 µM) is 0.295; in experiment [3] (first compound 1 µM), 0.319; in experiment [4] (first compound 0.02 µM), 0.274; in experiment [4] (first compound 0.06325 µM), 0.355; in experiment [4] (first compound 0.2 µM), 0.364; in experiment [4] (first compound 0.6325 µM), 0.289. Moreover, the relative viability in experiment [4] (first compound 2 µM) worked out at 0.248.
With NCI-H1651, the relative viability turned out to be 0.732 in experiment [1] (first compound 0.01 µM); 0.629 in experiment [1] (first compound 0.03162 µM); 0.633 in experiment [1] (first compound 0.1 µM); 0.575 in experiment [1] (first compound 0.3162 µM); 0.581 in experiment [1] (first compound 1 µM); 0.909 in experiment [2] (first compound 0.01 µM). Also, the relative viability in experiment [2] (first compound 0.03162 µM) was determined as 0.932; in experiment [2] (first compound 0.1 µM), 1.05; in experiment [2] (first compound 0.3162 µM) it was 1; in experiment [2] (first compound 1 µM) it was 0.911; in experiment [3] (first compound 0.01 µM), 0.544; in experiment [3] (first compound 0.03162 µM), 0.542. The relative viability came to 0.615 in experiment [3] (first compound 0.1 µM); 0.588 in experiment [3] (first compound 0.3162 µM); 0.423 in experiment [3] (first compound 1 µM); 0.403 in experiment [4] (first compound 0.02 µM); 0.452 in experiment [4] (first compound 0.06325 µM); 0.461 in experiment [4] (first compound 0.2 µM). Further, the relative viability in experiment [4] (first compound 0.6325 µM) came out at 0.311; in experiment [4] (first compound 2 µM) it was 0.21.
NCI-H1666: the relative viability in experiment [1] (first compound 0.01 µM) was determined as 0.702; in experiment [1] (first compound 0.03162 µM), 0.619; in experiment [1] (first compound 0.1 µM), 0.606; in experiment [1] (first compound 0.3162 µM), 0.587; in experiment [1] (first compound 1 µM), 0.558; in experiment [2] (first compound 0.01 µM) it was 0.88. Besides, the relative viability was 0.774 in experiment [2] (first compound 0.03162 µM); 0.793 in experiment [2] (first compound 0.1 µM); 0.816 in experiment [2] (first compound 0.3162 µM); 0.629 in experiment [2] (first compound 1 µM); 0.919 in experiment [3] (first compound 0.01 µM); 0.935 in experiment [3] (first compound 0.03162 µM). Besides, the relative viability in experiment [3] (first compound 0.1 µM) was found to be 0.8; in experiment [3] (first compound 0.3162 µM), 0.929; in experiment [3] (first compound 1 µM) it was 0.737; in experiment [4] (first compound 0.02 µM), 0.716; in experiment [4] (first compound 0.06325 µM), 0.835; in experiment [4] (first compound 0.2 µM) it was 0.772. Also, the relative viability was found to be 0.819 in experiment [4] (first compound 0.6325 µM) and 0.575 in experiment [4] (first compound 2 µM).
